Our source for the IC50 values is patent US20170114070A1, “INHIBITORS OF THE WNT SIGNALLING PATHWAYS” (Bayer Pharma Aktiengesellschaft, priority 2014, published 2017).

Experiment [1] relates to HCT116 FOPFlash (FOP control vector, non-functional TCF elements). Briefly: Cellular control reporter assay, HCT116 FOP control vector. In kind it is cell-based. To be noted: Homo sapiens, HCT-116; HCT116 stably transfected with FOP control vector; 36 hours incubation; luciferase expression; dilution series from 50 μM. The procedure: (§1) In a parallel approach, HCT116 cells were cotransfected with the FOP control vector and pcDNA3. The FOP vector is identical to the TOP construct, but it contains instead of functional TCF elements a randomized, non-functional sequence. For this transfection a stable transfected cell line was generated as well.
(§2) In preparation of the assay, the two cell lines were plated 24 hours before at 10000 cells per well of a 384 micro titre plate (MTP) in 30 μL growth medium. Selective inhibitory activity for small molecules on the mutated Wnt pathway was determined after parallel incubation of both (TOP and FOP) HCT116 reporter cell lines with a compound dilution series from 50 μM to 15 nM in steps of 3.16-fold dilutions in CAFTY buffer (130 mM NaCl, 5 mM KCl, 20 mM HEPES, 1 mM MgCl2, 5 mM NaHCO3, pH 7.4) containing 2 mM Ca^2+ and 0.01% BSA. The compounds were thereby serially prediluted in 100% DMSO and thereafter in addition 50 fold into the CAFTY compound dilution buffer (described above). From this dilution 10 μL were added to the cells in 30 μL growth medium and incubated for 36 hours at 37° C. and 5% CO2. Thereafter luciferase assay buffer (1:1 mixture of luciferase substrate buffer (20 mM Tricine, 2.67 mM MgSO4, 0.1 mM EDTA, 4 mM DTT, 270 μM Coenzyme A, 470 μM Luciferin, 530 μM ATP, ph adjusted to pH 7.8 with a sufficient volume of 5M NaOH) and Triton buffer (30 mL Triton X-100, 115 mL glycerol, 308 mg Dithiothreitol, 4.45 g Na2HPO4.2H2O, 3.03 g TRIS HCl, ad 1 l H20, pH 7.8) was added as equal volume to the compound solution on the cells to determine luciferase expression as a measure of Wnt signaling activity in a luminometer.

Experiment [2] has as its system constitutive active Wnt pathway (HCT116 TOPFlash). Briefly: Cellular reporter assay, HCT116 Super TopFlash (constitutive active Wnt pathway). In kind it is cell-based. Particulars: Homo sapiens, HCT-116; HCT116 stably transfected with Super TopFlash vector; 36 hours incubation; luciferase expression. The procedure: In order to discover and characterize small molecules which inhibit the constitutive active colorectal cancer cell (CRC) Wnt pathway, a cellular reporter assay was employed. The corresponding assay cell was generated by transfection of the colorectal cancer cell line HCT116 (ATCC, #CCL-247) with the Super TopFlash vector (Morin, Science 275, 1997, 1787-1790; Molenaar et al., Cell 86 (3), 1996, 391-399). The HCT116 cell line is cultivated at 37° C. and 5% CO2 in DMEM/F-12 (Life Technologies, #11320-074), supplemented with 2 mM glutamine, 20 mM HEPES, 1.4 mM pyruvate, 0.15% Na-bicarbonate and 10% foetal bovine serum (GIBCO, #10270), this cancer cell line is pathophysiological relevant since it carries a deletion of position S45 in the β-catenin gene, leading to constitutive active Wnt signaling. Stable transfectants were generated by cotransfection with pcDNA3 and selection of stable transfected cells with 1 mg/ml G418.
as §1, §2

As for `CN1CCN(CC(=O)Nc2cc(C(=O)Nc3ccc(-c4cnc(N)nc4)nn3)ccc2OC(F)(F)F)CC1` [Example 3, N-[6-(2-aminopyrimidin-5-yl)pyridazin-3-yl]-3-{[(4-methylpiperazin-1-yl)acetyl]amino}-4-(trifluoromethoxy)benzamide], the IC50 was at least 50000 nM in experiment [1] and 99.2 nM in experiment [2].

Take `Cc1ccccc1-c1cnc(NC(=O)c2ccc(OC(F)(F)F)c(NC(=O)CN3CCOCC3)c2)cn1` [Example 39, N-[5-(2-methylphenyl)pyrazin-2-yl]-3-[(morpholin-4-ylacetyl)amino]-4-(trifluoromethoxy)benzamide]: the half-inhibitory concentration (IC50) in experiment [1] worked out at 24900 nM; in experiment [2], 225 nM.

Take `O=C(CN1CCOCC1)Nc1cc(C(=O)Nc2cnc(-c3ccccc3Cl)cn2)ccc1OC(F)(F)F` [Example 33, N-[5-(2-chlorophenyl)pyrazin-2-yl]-3-[(morpholin-4-ylacetyl)amino]-4-(trifluoromethoxy)benzamide]: the IC50 in experiment [1] came out at 31500 nM; in experiment [2] it was 115 nM.

Regarding `CN1CCN(CC(=O)Nc2cc(C(=O)Nc3ncc(-c4ccccc4)nn3)ccc2OC(F)(F)F)CC1` [Example 18, 3-{[(4-methylpiperazin-1-yl)acetyl]amino}-N-(6-phenyl-1,2,4-triazin-3-yl)-4-(trifluoromethoxy)benzamide], the IC50 is 20000 nM in experiment [1] and 16 nM in experiment [2].

Turning to `Cc1cccc(F)c1-c1cnc(NC(=O)c2ccc(OC(F)(F)F)c(NC(=O)CN3CCOCC3)c2)cn1` [Example 58, N-[5-(2-fluoro-6-methylphenyl)pyrazin-2-yl]-3-[(morpholin-4-ylacetyl)amino]-4-(trifluoromethoxy)benzamide], the IC50 in experiment [1] was at least 50000 nM; in experiment [2], 2900 nM.

`Cc1cccc(-c2cnc(NC(=O)c3ccc(OC(F)(F)F)c(NC(=O)CN4CCOCC4)c3)cn2)c1` [Example 47, N-[5-(3-methylphenyl)pyrazin-2-yl]-3-[(morpholin-4-ylacetyl)amino]-4-(trifluoromethoxy)benzamide]: the half-maximal inhibitory concentration (IC50) in experiment [1] stood at 4100 nM; in experiment [2], 240 nM.

Regarding `O=C(CN1CCOCC1)Nc1cc(C(=O)Nc2cnc(-c3cccnc3)cn2)ccc1OC(F)(F)F` [Example 23, 3-[(morpholin-4-ylacetyl)amino]-N-[5-(pyridin-3-yl)pyrazin-2-yl]-4-(trifluoromethoxy)benzamide], the 50% inhibitory concentration (IC50) in experiment [1] was 46000 nM; in experiment [2], 29.7 nM.

For `O=C(Nc1cnc(-c2ccccc2)cn1)c1ccc(OC(F)(F)F)c(NC(=O)C2(N3CCOCC3)CC2)c1` [Example 20, 3-({[1-(morpholin-4-yl)cyclopropyl]carbonyl}amino)-N-(5-phenylpyrazin-2-yl)-4-(trifluoromethoxy)benzamide], the IC50 in experiment [1] is at least 50000 nM; in experiment [2] it was 14.4 nM.

Take `CN1CCN(CC(=O)Nc2cc(C(=O)Nc3cnc(-c4ccccc4)cn3)ccc2OC2CC2)CC1` [Example 21, 4-(cyclopropyloxy)-3-{[(4-methylpiperazin-1-yl)acetyl]amino}-N-(5-phenylpyrazin-2-yl)benzamide]: the concentration for half-maximal inhibition (IC50) in experiment [1] is 11000 nM; in experiment [2], 16.8 nM.

`O=C(CN1CCOCC1)Nc1cc(C(=O)Nc2cnc(-c3cncnc3)cn2)ccc1OC1CC1` [Example 27, 4-(cyclopropyloxy)-3-[(morpholin-4-ylacetyl)amino]-N-[5-(pyrimidin-5-yl)pyrazin-2-yl]benzamide]: the values for the half-inhibitory concentration (IC50) in experiment [1] and in experiment [2] were at least 50000 nM and 16700 nM, respectively.

On to `CN1CCN(CC(=O)Nc2cc(C(=O)Nc3cnc(-c4cccc(Cl)c4)cn3)ccc2OC(F)(F)F)CC1` [Example 48, N-[5-(3-chlorophenyl)pyrazin-2-yl]-3-{[(4-methylpiperazin-1-yl)acetyl]amino}-4-(trifluoromethoxy)benzamide], for which the half-maximal inhibitory concentration (IC50) in experiment [1] came to 7730 nM; in experiment [2], 260 nM.

For the compound `O=C(CN1CCOCC1)Nc1cc(C(=O)Nc2cnc(-c3ccccc3)cn2)ccc1OC(F)(F)F` [Example 10, 3-[(morpholin-4-ylacetyl)amino]-N-(5-phenylpyrazin-2-yl)-4-(trifluoromethoxy)benzamide], the IC50 is at least 50000 nM in experiment [1] and 63.2 nM in experiment [2].

For the compound `O=C(CN1CCN(CC(F)F)CC1)Nc1cc(C(=O)Nc2ccc(-c3ccccc3)nn2)ccc1OC(F)(F)F` [Example 5, 3-({[4-(2,2-difluoroethyl)piperazin-1-yl]acetyl}amino)-N-(6-phenylpyridazin-3-yl)-4-(trifluoromethoxy)benzamide], the results for the half-maximal inhibitory concentration (IC50) in experiment [1] and in experiment [2] were at least 50000 nM and 205 nM, respectively.

In the case of `O=C(CN1CCOCC1)Nc1cc(C(=O)Nc2ccc(-c3cncnc3)nn2)ccc1OC(F)(F)F` [Example 15, 3-[(morpholin-4-ylacetyl)amino]-N-[6-(pyrimidin-5-yl)pyridazin-3-yl]-4-(trifluoromethoxy)benzamide], the half-inhibitory concentration (IC50) was at least 50000 nM in experiment [1] and 636 nM in experiment [2].

As to `O=C(CN1CCOCC1)Nc1cc(C(=O)Nc2cnc(-c3cnccn3)cn2)ccc1OC1CC1` [Example 52, N-(2,2′-bipyrazin-5-yl)-4-(cyclopropyloxy)-3-[(morpholin-4-ylacetyl)amino]benzamide], the IC50 in experiment [1] was determined as 44700 nM; in experiment [2] it was 372 nM.

With `CN1CCN(CC(=O)Nc2cc(C(=O)Nc3cnc(-c4cnc(N)nc4)cn3)ccc2OC(F)(F)F)CC1` [Example 37, N-[5-(2-aminopyrimidin-5-yl)pyrazin-2-yl]-3-{[(4-methylpiperazin-1-yl)acetyl]amino}-4-(trifluoromethoxy)benzamide], the 50% inhibitory concentration (IC50) in experiment [1] is at least 50000 nM; in experiment [2], 223 nM.

Regarding `O=C(CN1CCOCC1)Nc1cc(C(=O)Nc2cnc(-c3cccc(F)c3)cn2)ccc1OC(F)(F)F` [Example 63, N-[5-(3-fluorophenyl)pyrazin-2-yl]-3-[(morpholin-4-ylacetyl)amino]-4-(trifluoromethoxy)benzamide], the half-maximal inhibitory concentration (IC50) is at least 50000 nM in experiment [1] and 16000 nM in experiment [2].

In the case of `CN1CCN(CC(=O)Nc2cc(C(=O)Nc3ncc(-c4ccccc4)cn3)ccc2OC(F)(F)F)CC1` [Example 19, 3-{[(4-methylpiperazin-1-yl)acetyl]amino}-N-(5-phenylpyrimidin-2-yl)-4-(trifluoromethoxy)benzamide], the results for the concentration for half-maximal inhibition (IC50) in experiment [1] and in experiment [2] were at least 50000 nM and 325 nM, respectively.

On to `CN1CCN(CC(=O)Nc2cc(C(=O)Nc3cnc(-c4ccccc4)cn3)ccc2OC(F)(F)F)CC1` [Example 11, 3-{[(4-methylpiperazin-1-yl)acetyl]amino}-N-(5-phenylpyrazin-2-yl)-4-(trifluoromethoxy)benzamide], for which the IC50 is at least 50000 nM in experiment [1] and 13 nM in experiment [2].

For the compound `O=C(CN1CCOCC1)Nc1cc(C(=O)Nc2cnc(-c3cc(F)cc(F)c3)cn2)ccc1OC(F)(F)F` [Example 31, N-[5-(3,5-difluorophenyl)pyrazin-2-yl]-3-[(morpholin-4-ylacetyl)amino]-4-(trifluoromethoxy)benzamide], the IC50 in experiment [1] is 26800 nM; in experiment [2], 88.5 nM.

Turning to `N=S1(=O)CCN(CC(=O)Nc2cc(C(=O)Nc3ccc(-c4ccccc4)nn3)ccc2OC(F)(F)F)CC1` [Example 62], the 50% inhibitory concentration (IC50) in experiment [1] worked out at 25500 nM; in experiment [2] it was 12500 nM.

With `CN1CCN(CC(=O)Nc2cc(C(=O)Nc3cnc(-c4cncnc4)cn3)ccc2OC(F)(F)F)CC1` [Example 49], the IC50 in experiment [1] was at least 50000 nM; in experiment [2], 260 nM.

On to `CN1CCN(CC(=O)Nc2cc(C(=O)Nc3ccc(-c4cncnc4)nn3)ccc2OC(F)(F)F)CC1` [Example 2, 3-{[(4-methylpiperazin-1-yl)acetyl]amino}-N-[6-(pyrimidin-5-yl)pyridazin-3-yl]-4-(trifluoromethoxy)benzamide], for which the half-inhibitory concentration (IC50) in experiment [1] is at least 50000 nM; in experiment [2], 162 nM.

As for `O=C(CN1CCOCC1)Nc1cc(C(=O)Nc2cnc(-c3cncnc3)cn2)ccc1OC(F)(F)F` [Example 26, 3-[(morpholin-4-ylacetyl)amino]-N-[5-(pyrimidin-5-yl)pyrazin-2-yl]-4-(trifluoromethoxy)benzamide], the values for the IC50 in experiment [1] and in experiment [2] were at least 50000 nM and 58 nM, respectively.
